From patent publication US9371319B2, “Pyrrolopyridineamino derivatives as MPS1 inhibitors” (priority 2011, dated 2016) come the findings set out here.

In general, IC50 refers to the concentration needed to halve the response being measured. Higher therefore signals weaker potency in that assay.

The target in the experiment is T1, full length MPS1 (Homo sapiens, UniProt P33981).
T1 sequence (P33981 1-857): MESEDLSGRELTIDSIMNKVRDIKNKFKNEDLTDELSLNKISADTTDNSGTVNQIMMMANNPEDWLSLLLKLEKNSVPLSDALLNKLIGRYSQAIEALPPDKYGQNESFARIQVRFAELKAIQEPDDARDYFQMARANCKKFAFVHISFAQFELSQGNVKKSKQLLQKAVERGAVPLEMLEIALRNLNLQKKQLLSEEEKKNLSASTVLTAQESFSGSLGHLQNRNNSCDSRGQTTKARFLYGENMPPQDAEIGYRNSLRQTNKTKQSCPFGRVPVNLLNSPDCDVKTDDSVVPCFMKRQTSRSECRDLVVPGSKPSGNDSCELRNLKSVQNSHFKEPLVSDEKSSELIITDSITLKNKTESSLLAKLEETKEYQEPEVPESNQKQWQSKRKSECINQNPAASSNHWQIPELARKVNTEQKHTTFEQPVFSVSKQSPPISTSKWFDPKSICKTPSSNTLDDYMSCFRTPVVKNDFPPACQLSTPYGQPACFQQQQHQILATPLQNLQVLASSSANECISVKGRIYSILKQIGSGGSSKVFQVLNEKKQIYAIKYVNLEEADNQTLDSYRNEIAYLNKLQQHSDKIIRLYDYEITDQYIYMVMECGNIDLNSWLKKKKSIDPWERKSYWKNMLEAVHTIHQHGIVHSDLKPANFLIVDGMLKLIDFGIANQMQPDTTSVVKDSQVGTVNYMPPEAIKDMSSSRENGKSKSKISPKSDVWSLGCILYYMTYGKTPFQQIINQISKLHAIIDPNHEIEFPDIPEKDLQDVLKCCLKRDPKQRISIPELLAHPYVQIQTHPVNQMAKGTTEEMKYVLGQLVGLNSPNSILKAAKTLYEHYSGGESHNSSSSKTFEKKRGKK
Briefly: biochemical.

As for `Cn1cc(-c2cc3cnc(Nc4cccc(OCC#N)c4)cc3n2C(=O)OC(C)(C)C)cn1` [Example 36], the IC50 is 0.156 µM. As to `CCN(C)C(=O)c1ccc(Nc2cc3c(cn2)cc(-c2cnn(C)c2)n3C(=O)OC(C)(C)C)c(Cl)c1` [Example 39], the IC50 stood at 0.004 µM.

Consider `O=S1(=O)CCN(Cc2ccc(Nc3cc4[nH]c(-c5cn[nH]c5)cc4cn3)cc2)CC1` [Example 175, 2-(1H-Pyrazol-4-yl)-N-(4-(thiomorpholinomethyl)phenyl)-1H-pyrrolo[3,2-c]pyridin-6-amine-S,S-dioxide], for which inhibition was half-maximal at 0.004 µM (IC50). Then `CN(C)C(=O)c1ccc(Nc2cc3c(cn2)cc(-c2cnn(C)c2)n3Cc2ccc(F)cc2)c(Cl)c1` [Example 70], with 0.038 µM; and `CN(C)C(=O)c1ccc(Nc2cc3c(cn2)cc(-c2cnn(C)c2)n3C2CCCC2)c(Cl)c1` [Example 73], with 0.007 µM; and `COc1cc(C(=O)NC2CCN(C)CC2)ccc1Nc1cc2[nH]c(-c3cnn(C)c3)cc2cn1` [Example 111, 3-Methoxy-4-((2-(1-methyl-1H-pyrazol-4-yl)-1H-pyrrolo[3,2-c]pyridin-6-yl)amino)-N-(1-methylpiperidin-4-yl)benzamide], with 0.042 µM. `Cc1ncn(C)c1-c1ccc(Nc2cc3c(cn2)cc(-c2cnn(C)c2)n3C(=O)OC(C)(C)C)c(Cl)c1` [Example 63]: half-maximal inhibition (IC50) was put at 0.005 µM. Then `Cn1cc(-c2cc3cnc(Nc4ccccc4C#N)cc3n2C(=O)OC(C)(C)C)cn1` [Example 54], with 0.032 µM; and `N#Cc1ccc(Nc2cc3[nH]c(-c4cn[nH]c4)cc3cn2)cc1` [Example 177, 4-(2-(1H-pyrazol-4-yl)-1H-pyrrolo[3,2-c]pyridin-6-ylamino) benzonitrile], with 0.15 µM. Then `Cn1cc(-c2cc3cnc(Nc4ccc(OC(F)F)cc4Cl)cc3[nH]2)cn1` [Example 132, N-(2-Chloro-4-(difluoromethoxy)phenyl)-2-(1-methyl-1H-pyrazol-4-yl)-1H-pyrrolo[3,2-c]pyridin-6-amine], with 0.288 µM; and `Fc1ccc(Nc2cc3[nH]c(-c4cn[nH]c4)cc3cn2)cc1` [Example 188, N-(4-fluorophenyl)-2-(1H-pyrazol-4-yl)-1H-pyrrolo[3,2-c]pyridin-6-amine], with 0.14 µM; and `CN1CCN(C(=O)c2ccc(Nc3cc4[nH]c(-c5cnn(C)c5)cc4cn3)c(Cl)c2)CC1` [Example 146, (3-Chloro-4-(2-(1-methyl-1H-pyrazol-4-yl)-1H-pyrrolo[3,2-c]pyridin-6-ylamino)phenyl)(4-methylpiperazin-1-yl) methanone], with 0.02 µM. The result for `Cn1cc(-c2cc3cnc(Nc4ccc(-c5cncs5)cc4Cl)cc3n2C(=O)OC(C)(C)C)cn1` [Example 24] reads 0.009 µM. Take `CN(C)C(=O)c1ccc(Nc2cc3c(cn2)cc(-c2cnn(C)c2)n3-c2ccccn2)c(Cl)c1` [Example 94]: the IC50 stood at 0.078 µM. Compound `Cn1cncc1-c1ccc(Nc2cc3c(cn2)cc(-c2cnco2)n3C(=O)OC(C)(C)C)c(Cl)c1` [Example 91] registered an IC50 of 0.006 µM. With `Cn1cc(-c2ccc(Nc3cc4c(cn3)cc(-c3cnn(C)c3)n4C(=O)OC3CCCC3)c(Cl)c2)cn1` [Example 75], the IC50 was 0.012 µM. Then `Cn1cc(-c2cc3cnc(Nc4ccc(-n5cncn5)cc4Cl)cc3[nH]2)cn1` [Example 129, N-(2-Chloro-4-(1H-1,2,4-triazol-1-yl)phenyl)-2-(1-methyl-1H-pyrazol-4-yl)-1H-pyrrolo[3,2-c]pyridin-6-amine], with 0.055 µM; and `CN(C)C(=O)c1ccc(Nc2cc3[nH]c(-c4cnco4)cc3cn2)c(Cl)c1` [Example 180, 3-Chloro-N,N-dimethyl-4-(2-(oxazol-5-yl)-1H-pyrrolo[3,2-c]pyridin-6-ylamino)benzamide], with 0.005 µM. The result for `Cc1ncc(-c2ccc(Nc3cc4c(cn3)cc(-c3cnn(C)c3)n4C(=O)OC(C)C)cc2)n1C` [Example 108] reads 0.002 µM; that for `Cn1cc(-c2cc3cnc(Nc4ccc(-c5ccn(C)n5)cc4Cl)cc3[nH]2)cn1` [Example 124, N-(2-Chloro-4-(1-methyl-1H-pyrazol-3-yl)phenyl)-2-(1-methyl-1H-pyrazol-4-yl)-1H-pyrrolo[3,2-c]pyridin-6-amine], 0.052 µM. Take `Cc1ccc(-c2ccc(Nc3cc4c(cn3)cc(-c3cnn(C)c3)n4C(=O)OC(C)(C)C)c(Cl)c2)cn1` [Example 49]: the IC50 was determined as 0.009 µM. Then `CC(C)OC(=O)n1c(-c2cnn(C)c2)cc2cnc(Nc3ccc(-c4cnn(C)c4)cc3Cl)cc21` [Example 76], with 0.017 µM. Then `CC(=O)N1CCN(c2ccc(Nc3cc4[nH]c(-c5cn[nH]c5)cc4cn3)cc2)CC1` [Example 169, 1-(4-(4-(2-(1H-Pyrazol-4-yl)-1H-pyrrolo[3,2-c]pyridin-6-ylamino)phenyl)piperazin-1-yl)ethanone], with 0.08 µM; and `CN(C)C(=O)c1ccc(Nc2cc3c(cn2)c(Cl)c(-c2cnn(C)c2)n3CC2CCCC2)c(Cl)c1` [Example 191, 3-Chloro-4-(3-chloro-1-(cyclopentylmethyl)-2-(1-methyl-1H-pyrazol-4-yl)-1H-pyrrolo[3,2-c]pyridin-6-ylamino)-N,N-dimethylbenzamide], with 0.097 µM; and `FC(F)(F)c1ccccc1Nc1cc2[nH]c(-c3cn[nH]c3)cc2cn1` [Example 164, 2-(1H-Pyrazol-4-yl)-N-(2-(trifluoromethyl)phenyl)-1H-pyrrolo[3,2-c]pyridin-6-amine], with 0.512 µM. Then `Cc1cc(Cn2c(-c3cnn(C)c3)cc3cnc(Nc4ccc(C(=O)N(C)C)cc4Cl)cc32)no1` [Example 90], with 0.343 µM; and `COc1cc(C(=O)N2CC(OC)C2)ccc1Nc1cc2c(cn1)cc(-c1cnco1)n2C(=O)OC(C)(C)C` [Example 97], with 0.01 µM.

Consider `Cn1cc(-c2cc3cnc(Nc4ccc(S(C)(=O)=O)cc4Cl)cc3[nH]2)cn1` [Example 131, N-(2-Chloro-4-(methylsulfonyl)phenyl)-2-(1-methyl-1H-pyrazol-4-yl)-1H-pyrrolo[3,2-c]pyridin-6-amine], for which the IC50 came out at 0.024 µM. Then `COC(=O)n1c(-c2cnn(C)c2)cc2cnc(Nc3ccc(-c4cnc(C)n4C)cc3Cl)cc21` [Example 86], with 0.007 µM; and `CN(C)C(=O)c1ccc(Nc2cc3c(cn2)cc(-c2cnn(C)c2)n3CC2CC2)c(Cl)c1` [Example 66], with 0.03 µM. Then `Cc1ncc(-c2ccc(Nc3cc4c(cn3)cc(-c3cnn(C)c3)n4CC3CC3)c(Cl)c2)n1C` [Example 105], with 0.029 µM; and `CN(C)C(=O)c1ccc(Nc2cc3c(cn2)cc(-c2cnn(C)c2)n3CC2CCCCC2)c(Cl)c1` [Example 71], with 0.067 µM; and `COc1ccc(Nc2cc3[nH]c(-c4cnn(Cc5cc(C)on5)c4)cc3cn2)c(OC)c1` [Example 173, N-(2,4-Dimethoxyphenyl)-2-(1-((5-methylisoxazol-3-yl)methyl)-1H-pyrazol-4-yl)-1H-pyrrolo[3,2-c]pyridin-6-amine], with 0.207 µM. Then `COc1cc(C(=O)N2CC(OC)C2)ccc1Nc1cc2c(cn1)cc(-c1cnn(C)c1)n2C(=O)OC(C)(C)C` [Example 12], with 0.007 µM.

Regarding `COc1cc(C(=O)N2CCS(=O)(=O)CC2)ccc1Nc1cc2[nH]c(-c3cnn(C)c3)cc2cn1` [Example 115, (3-Methoxy-4-(2-(1-methyl-1H-pyrazol-4-yl)-1H-pyrrolo[3,2-c]pyridin-6-ylamino)phenyl)(thiomorpholino)methanone-S,S-dioxide], 0.007 µM corresponded to half-maximal inhibition (IC50). The result for `Cc1ncc(-c2ccc(Nc3cc4c(cn3)cc(-c3cnco3)n4C(=O)OC(C)(C)C)c(Cl)c2)n1C` [Example 107] reads 0.002 µM. The result for `Cn1cc(-c2ccc(Nc3cc4[nH]c(-c5cnn(C)c5)c(Cl)c4cn3)c(Cl)c2)cn1` [Example 194, 3-Chloro-N-(2-chloro-4-(1-methyl-1H-pyrazol-4-yl)phenyl)-2-(1-methyl-1H-pyrazol-4-yl)-1H-pyrrolo[3,2-c]pyridin-6-amine] reads 0.128 µM; that for `CN(C)C(=O)c1cc(Cl)c(Nc2cc3[nH]c(-c4cnn(C)c4)cc3cn2)c(Cl)c1` [Example 121, 3,5-Dichloro-N,N-dimethyl-4-(2-(1-methyl-1H-pyrazol-4-yl)-1H-pyrrolo[3,2-c]pyridin-6-ylamino)benzamide], 0.091 µM.

The compound `COc1cc(CN2CCCC2)ccc1Nc1cc2[nH]c(-c3cnn(C)c3)cc2cn1` [Example 137, N-(2-methoxy-4-(pyrrolidin-1-ylmethyl)phenyl)-2-(1-methyl-1H-pyrazol-4-yl)-1H-pyrrolo[3,2-c]pyridin-6-amine] returned a 50% inhibitory concentration (IC50) of 0.025 µM.

`Cn1cc(-c2cc3cnc(Nc4cccc(OCC#N)c4)cc3[nH]2)cn1` [Example 141, 2-(3-(2-(1-Methyl-1H-pyrazol-4-yl)-1H-pyrrolo[3,2-c]pyridin-6-ylamino)phenoxy)acetonitrile] had a half-maximal inhibitory concentration (IC50) of 0.132 µM.
